Patent US20150094474A1, “AGRICULTURAL CHEMICALS” (Redx Pharma Ltd., priority 2012, published 2015)

Assays:
barley = test: Herbicidal bioassay, barley (% necrosis); type: in vivo
Summary of the method: (§1)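 Lolium perenne, barley, peas and Chinese cabbage at 2-4 true leaf stage sprayed simultaneously with a Potter tower, compounds in DMSO at six concentrations (0.05% to 0.0001%). Phytotoxicity scored as % necrosis per EPPO PP1/135 at set intervals; five replicates per treatment and species; DMSO and water controls.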

peas = test: Herbicidal bioassay, peas (% necrosis); type: in vivo
Summary of the method: as §1

CC(/C=N/OCc1ccccc1)Oc1ccc(Oc2ccc(C(F)(F)F)cn2)cc1 (stereo not drawn) [Compound 65, N-Benzyloxy-2-[4-[[5-(trifluoromethyl)-2-pyridyl]oxy]phenoxy]propan-1-imine]
C (less than 50% necrosis): Sum of % necrosis in barley (barley; Dose 0.000001, Day 0) | Sum of % necrosis in barley (barley; Dose 0.000001, Day 1) | Sum of % necrosis in barley (barley; Dose 0.000001, Day 3) | Sum of % necrosis in barley (barley; Dose 0.000001, Day 7) | Sum of % necrosis in barley (barley; Dose 0.000001, Day 10) | Sum of % necrosis in barley (barley; Dose 0.000001, Day 14) | Sum of % necrosis in barley (barley; Dose 0.000005, Day 0) | Sum of % necrosis in barley (barley; Dose 0.000005, Day 1) | Sum of % necrosis in barley (barley; Dose 0.000005, Day 3) | Sum of % necrosis in barley (barley; Dose 0.000005, Day 7) | Sum of % necrosis in barley (barley; Dose 0.000005, Day 10) | Sum of % necrosis in barley (barley; Dose 0.000005, Day 14) | Sum of % necrosis in barley (barley; Dose 0.00001, Day 0) | Sum of % necrosis in barley (barley; Dose 0.00001, Day 1) | Sum of % necrosis in barley (barley; Dose 0.00001, Day 3) | Sum of % necrosis in barley (barley; Dose 0.00001, Day 7) | Sum of % necrosis in barley (barley; Dose 0.00001, Day 10) | Sum of % necrosis in barley (barley; Dose 0.00001, Day 14) | Sum of % necrosis in barley (barley; Dose 0.00005, Day 0) | Sum of % necrosis in barley (barley; Dose 0.00005, Day 1) | Sum of % necrosis in barley (barley; Dose 0.00005, Day 3) | Sum of % necrosis in barley (barley; Dose 0.00005, Day 7) | Sum of % necrosis in barley (barley; Dose 0.00005, Day 10) | Sum of % necrosis in barley (barley; Dose 0.00005, Day 14) | Sum of % necrosis in barley (barley; Dose 0.0001, Day 0) | Sum of % necrosis in barley (barley; Dose 0.0001, Day 1) | Sum of % necrosis in barley (barley; Dose 0.0001, Day 3) | Sum of % necrosis in barley (barley; Dose 0.0001, Day 7) | Sum of % necrosis in barley (barley; Dose 0.0001, Day 10) | Sum of % necrosis in barley (barley; Dose 0.0001, Day 14) | Sum of % necrosis in barley (barley; Dose 0.0005, Day 0) | Sum of % necrosis in barley (barley; Dose 0.0005, Day 1) | Sum of % necrosis in barley (barley; Dose 0.0005, Day 3) | Sum of % necrosis in barley (barley; Dose 0.0005, Day 7) | Sum of % necrosis in barley (barley; Dose 0.0005, Day 10) | Sum of % necrosis in barley (barley; Dose 0.0005, Day 14) | Sum of % necrosis in Peas (peas; Dose 0.000001, Day 0) | Sum of % necrosis in Peas (peas; Dose 0.000001, Day 1) | Sum of % necrosis in Peas (peas; Dose 0.000001, Day 3) | Sum of % necrosis in Peas (peas; Dose 0.000001, Day 7) | Sum of % necrosis in Peas (peas; Dose 0.000001, Day 10) | Sum of % necrosis in Peas (peas; Dose 0.000001, Day 14) | Sum of % necrosis in Peas (peas; Dose 0.000005, Day 0) | Sum of % necrosis in Peas (peas; Dose 0.000005, Day 1) | Sum of % necrosis in Peas (peas; Dose 0.000005, Day 3) | Sum of % necrosis in Peas (peas; Dose 0.000005, Day 7) | Sum of % necrosis in Peas (peas; Dose 0.000005, Day 10) | Sum of % necrosis in Peas (peas; Dose 0.000005, Day 14) | Sum of % necrosis in Peas (peas; Dose 0.00001, Day 0) | Sum of % necrosis in Peas (peas; Dose 0.00001, Day 1) | Sum of % necrosis in Peas (peas; Dose 0.00001, Day 3) | Sum of % necrosis in Peas (peas; Dose 0.00001, Day 7) | Sum of % necrosis in Peas (peas; Dose 0.00001, Day 10) | Sum of % necrosis in Peas (peas; Dose 0.00001, Day 14) | Sum of % necrosis in Peas (peas; Dose 0.00005, Day 0) | Sum of % necrosis in Peas (peas; Dose 0.00005, Day 1) | Sum of % necrosis in Peas (peas; Dose 0.00005, Day 3) | Sum of % necrosis in Peas (peas; Dose 0.00005, Day 7) | Sum of % necrosis in Peas (peas; Dose 0.00005, Day 10) | Sum of % necrosis in Peas (peas; Dose 0.00005, Day 14) | Sum of % necrosis in Peas (peas; Dose 0.0001, Day 0) | Sum of % necrosis in Peas (peas; Dose 0.0001, Day 1) | Sum of % necrosis in Peas (peas; Dose 0.0001, Day 3) | Sum of % necrosis in Peas (peas; Dose 0.0001, Day 7) | Sum of % necrosis in Peas (peas; Dose 0.0001, Day 10) | Sum of % necrosis in Peas (peas; Dose 0.0001, Day 14) | Sum of % necrosis in Peas (peas; Dose 0.0005, Day 0) | Sum of % necrosis in Peas (peas; Dose 0.0005, Day 1) | Sum of % necrosis in Peas (peas; Dose 0.0005, Day 3) | Sum of % necrosis in Peas (peas; Dose 0.0005, Day 7) | Sum of % necrosis in Peas (peas; Dose 0.0005, Day 10) | Sum of % necrosis in Peas (peas; Dose 0.0005, Day 14)
